Measurements: patent US20230346796A1 (priority 2010, published 2023)
In brackets after ≈: the same amount, converted by molar mass. Several values for one entry are separate records, joined by “and”; a condition that tells them apart may be missing. Equal entries are not always repeated. Where two headings read alike, the source gives them in different places.

Key:
[1] = Physiologically-based population pharmacokinetic analysis of CNS 7056 (Studies CNS 7056-001 and CNS 7056-002); settings: for V3: arterial; for clearance: human, plasma, intravenous
[2] = test system: patients undergoing a colonoscopy; settings: for Success rate n/N (%): Phase IIb (Study CNS7056-004); for Time to ready for discharge, Mean (SD): after last injection, first of three consecutive Aldrete scores of ≥ 9; for Time to ready for discharge, Mean (SD) / Time to fully alert, Mean (SD): ITT population; for Time to fully alert, Mean (SD): first of three consecutive MOAA/S scores of 5 after the last injection; for Time to Procedure Start, mean (SD): after initial dose
[3] = test system: healthy volunteers and patients undergoing a colonoscopy; experiment: animal or person; assay type: in vivo, human; settings: for EC50: Homo sapiens, read-out: EC50, theta (RSE%)
[4] = human, in vivo
[5] = human, in vivo; remark: listed apart in the source
[6] = test system: procedural sedation; settings: Phase II, cited from earlier work
[7] = test system: procedural sedation; settings: Phase III, cited from earlier work
[8] = Run 142S, Lung/Central, 3 compartments
[9] = Run 144S, Lung/Liver, 4 compartments
[10] = highest dose regimen (8.0/3.0 mg)
[11] = lowest dose regimen (5.0/3.0 mg)
[12] = middle dose regimen (7.0/2.0 mg)

For `COC(=O)CC[C@@H]1N=C(c2ccccn2)c2cc(Br)ccc2-n2c(C)cnc21` [CNS 7056, 3-[(4S)-8-bromo-1-methyl-6-(2-pyridinyl)-4H-imidazo[1,2-a][1,4]benzodiazepin-4-yl] propionic methyl ester], the “Blood/Plasma Cardiac Flow, theta (RSE%)” value ([1]; Run 128S, Lung, 3 compartments) was 173 (3.37) l/h, the “Central Volume, eta IIV (RSE%)” value ([1]; Run 128S, Lung, 3 compartments) was 146.9 (52.9) % and the “Central Volume, theta (RSE%)” value ([1]; Run 128S, Lung, 3 compartments) was 1.71 (15.2) I. The “Deep Volume(5), theta (RSE%)” value ([1]; Run 128S, Lung, 3 compartments) was 23.4 (4.57) I, the “Deep Volume, eta IIV (RSE%)” value ([1]; Run 128S, Lung, 3 compartments) was 22.55 (9.94) % and the “Inter-Tissue Clearance(4), theta (RSE%)” value ([1]; Run 128S, Lung, 3 compartments) was 74.6 (3.29) I/h. The “Inter-Tissue Clearance(5), theta (RSE%)” value ([1]; Run 128S, Lung, 3 compartments) was 25.7 (6.18) I/h, the “Peripheral Volume(4), theta (RSE%)” value ([1]; Run 128S, Lung, 3 compartments) was 13.5 (9.18) I and the “Peripheral Volume, eta IIV (RSE%)” value ([1]; Run 128S, Lung, 3 compartments) was 50.10 (18.0) %. The “Pulmonary Clearance, eta IIV (RSE%)” value ([1]; Run 128S, Lung, 3 compartments) was 14.35 (6.07) %, the “Pulmonary Clearance, theta (RSE%)” value ([1]; Run 128S, Lung, 3 compartments) was 49.1 (2.02) I/h and the “Blood/Plasma Cardiac Flow, theta (RSE%)” value ([1]; Run 135S, Lung, 4 compartments) was 174 (3.59) l/h. For the same compound, the “Central Volume, eta IIV (RSE%)” value ([1]; Run 135S, Lung, 4 compartments) was 190.2 (66.8) %, the “Central Volume, theta (RSE%)” value ([1]; Run 135S, Lung, 4 compartments) was 1.24 (19.3) I and the “Deep Volume(5), theta (RSE%)” value ([1]; Run 135S, Lung, 4 compartments) was 23.8 (4.78) I. For the same compound, the “Deep Volume, eta IIV (RSE%)” value ([1]; Run 135S, Lung, 4 compartments) was 23.44 (10.3) %, the “Deeper Volume(6), theta (RSE%)” value ([1]; Run 135S, Lung, 4 compartments) was 12 (20.4) I and the “Inter-Tissue Clearance(4), theta (RSE%)” value ([1]; Run 135S, Lung, 4 compartments) was 68.5 (5.45) I/h. The “Inter-Tissue Clearance(5), theta (RSE%)” value ([1]; Run 135S, Lung, 4 compartments) was 42 (5.57) I/h, the “Inter-Tissue Clearance(6), theta (RSE%)” value ([1]; Run 135S, Lung, 4 compartments) was 3.12 (13.2) I/h and the “Peripheral Volume(4), theta (RSE%)” value ([1]; Run 135S, Lung, 4 compartments) was 8.14 (12.8) I. The “Peripheral Volume, eta IIV (RSE%)” value ([1]; Run 135S, Lung, 4 compartments) was 71.40 (25.4) %, the “Pulmonary Clearance, eta IIV (RSE%)” value ([1]; Run 135S, Lung, 4 compartments) was 14.42 (6.13) % and the “Pulmonary Clearance, theta (RSE%)” value ([1]; Run 135S, Lung, 4 compartments) was 48.7 (2.00) I/h. For the same compound, the “Blood/Plasma Cardiac Flow, theta (RSE%)” value [1, 8] was 177 (3.54) l/h, the “Central Volume, eta IIV (RSE%)” value [1, 8] was 143.6 (52.2) % and the “Central Volume, theta (RSE%)” value [1, 8] was 1.93 (15.8) I. The “Deep Volume(5), theta (RSE%)” value [1, 8] was 23.1 (4.58) I, the “Deep Volume, eta IIV (RSE%)” value [1, 8] was 22.59 (10.0) % and the “Extra-pulmonary Clearance, theta (RSE%)” value [1, 8] was 8.53 (52.4) I/h. For the same compound, the “Inter-Tissue Clearance(4), theta (RSE%)” value [1, 8] was 72.4 (3.61) I/h, the “Inter-Tissue Clearance(5), theta (RSE%)” value [1, 8] was 25.3 (6.16) I/h and the “Peripheral Volume(4), theta (RSE%)” value [1, 8] was 13.4 (9.32) I. For the same compound, the “Peripheral Volume, eta IIV (RSE%)” value [1, 8] was 50.48 (18.2) %, the “Pulmonary Clearance, eta IIV (RSE%)” value [1, 8] was 17.12 (8.97) % and the “Pulmonary Clearance, theta (RSE%)” value [1, 8] was 44.5 (6.11) I/h. For the same compound, the “Blood/Plasma Cardiac Flow, theta (RSE%)” value [1, 9] was 175 (2.68) l/h, the “Central Volume, eta IIV (RSE%)” value [1, 9] was 368.5 (105.) % and the “Central Volume, theta (RSE%)” value [1, 9] was 0.834 (15.8) I. For the same compound, the “Deep Volume(5), theta (RSE%)” value [1, 9] was 22.7 (5.28) I, the “Deep Volume, eta IIV (RSE%)” value [1, 9] was 24.10 (10.9) % and the “Deeper Volume(6), theta (RSE%)” value [1, 9] was 10.9 (16.7) I. For the same compound, the “Extra-pulmonary Clearance, theta (RSE%)” value [1, 9] was 6.15 (49.7) I/h, the “Inter-Tissue Clearance(4), theta (RSE%)” value [1, 9] was 46.2 (7.27) I/h and the “Inter-Tissue Clearance(5), theta (RSE%)” value [1, 9] was 40 (5.12) I/h. The “Inter-Tissue Clearance(6), theta (RSE%)” value [1, 9] was 3.07 (15.1) I/h, the “Peripheral Volume(4), theta (RSE%)” value [1, 9] was 6.47 (13.5) I and the “Peripheral Volume, eta IIV (RSE%)” value [1, 9] was 90.06 (30.2) %. The “Pulmonary Clearance, eta IIV (RSE%)” value [1, 9] was 16.22 (7.32) %, the “Pulmonary Clearance, theta (RSE%)” value [1, 9] was 45.0 (4.24) I/h and the V3 ([1]; 0.65 x weight/70, Geom. Mean (Typical Value)) was 0.717 I. For the same compound, the V3 ([1]; 0.65 x weight/70, Subject 1210) was 0.786 I, the V3 ([1]; 0.65 × weight/70, Geom. Mean (Typical Value)) was 0.717 L and the V3 ([1]; 0.65 × weight/70, Subject 1210) was 0.786 L. The clearance ([1]; both, Clearance, Geom. Mean (Typical Value)) was 819 mL/min, the clearance ([1]; both, systemic clearance) was roughly 1000 mL/min and the clearance ([1]; Clearance, Subject 1210) was 732 mL/min. For the same compound, the “contribution of the liver to clearance” value ([1]; modelling) was roughly 10%, the “pulmonary extraction ratio, and first-pass metabolism” value ([1]; modelling) was “approximately 28%” and the V4 ([1]; peripheral, Subject 1210) was 21.59 L. The systemic exposure ([1]; typical single dose 7 mg) was “approximately 0.12 mcg.h/ml”, the “Success rate n/N (%) (ITT)” value ([2]; 7.0 mg initial / 2.0 mg top-ups (middle dose regimen), 40 patients) was 38/40 (95.0%), p = 0.025 and the “Success rate n/N (%)” value ([2]; 5.0/3.0 mg) was 39/40 (97.5%). The “Time to ready for discharge, Mean (SD)” value ([2]; 5.0/3.0 mg) was 13.5 (4.83) mins, the “Time to fully alert, Mean (SD)” value ([2]; 5.0/3.0 mg) was 13.3 (7.21) mins and the “Time to Procedure Start, mean (SD)” value ([2]; 5.0/3.0) was 2.65 (1.42) minutes. The “Success rate n/N (%)” value ([2]; 7.0/2.0 mg) was 38/40 (95.0%), the “Time to Procedure Start, mean (SD)” value ([2]; 7.0/2.0 mg) was 3.03 (2.17) minutes and the “Time to ready for discharge, Mean (SD)” value ([2]; 7.0/2.0 mg) was 14.0 (6.28) mins. For the same compound, the “Time to fully alert, Mean (SD)” value ([2]; 7.0/2.0 mg) was 11.3 (5.69) mins, the “Success rate n/N (%)” value ([2]; 8.0/3.0 mg) was 37/40 (92.5%) and the “Time to Procedure Start, mean (SD)” value ([2]; 8.0/3.0 mg) was 2.23 (1.44) minutes. The “Time to ready for discharge, Mean (SD)” value ([2]; 8.0/3.0 mg) was 16.8 (7.54) mins, the “Time to fully alert, Mean (SD)” value ([2]; 8.0/3.0 mg) was 13.6 (7.48) mins and the “recovery to fully alert” value [2, 10] was 13.6 min. For the same compound, the time to discharge [2, 10] was 16.8 min, the “related AESIs (adverse events of special interest)” value ([2]; human, in vivo) was 10 and the “Success rate n/N (%) (ITT)” value ([2]; in vivo) was 95%. For the same compound, the “patients requiring manual or mechanical ventilation” value ([2]; in vivo) was “no patient required manual or mechanical ventilation”, the “time to fully alert compared to Midazolam” value ([2]; in vivo) was “shorter” and the “recovery to fully alert” value [2, 11] was 13.3 min. For the same compound, the time to discharge [2, 11] was 13.5 min, the “recovery to fully alert” value [2, 12] was 11.3 min and the time to discharge [2, 12] was 14 min. For the same compound, the EC50 ([3]; 1 min) was 0.332 µg/mL (≈ 0.756 µM), the EC50 ([3]; 2 min) was 0.325 µg/mL (≈ 0.74 µM) and the EC50 [3] was 0.369 µg/mL (≈ 0.84 µM). The EMAX ([3]; in vivo) was 5.0, the “EMAX, fitted theta (RSE%)” value ([3]; in vivo) was 4.88 (1.20) and 4.85 (0.87) and the “EMIN (first line so headed), eta IIV (RSE%)” value ([3]; in vivo) was 29.73 (15.2) and 28.87 (11.7). For the same compound, the “EMIN (second line so headed), eta IIV (RSE%)” value ([3]; in vivo) was 94.18 (38.7), the “Hill Coefficient (γ), theta (RSE%)” value ([3]; in vivo) was 3.16 (8.82) and 4.64 (8.81) and 3.92 (6.76) and 3.9 (7.10) and 3.93 (6.81) and the “Hill Coefficient, eta IIV (RSE%)” value ([3]; in vivo) was 54.72 (24.0) % and 57.77 (24.8) % and 50.35 (22.3) % and 51.71 (22.7) % and 48.59 (21.4) % and 59.37 (25.3) %. For the same compound, the Hill coefficient ([3]; in vivo) was 4.03 and 6.627, the “Hill coefficient, eta IIV (RSE%)” value ([3]; in vivo) was 53.17 (23.0) and 69.49 (30.2) and the “Hill coefficient, theta (RSE%)” value ([3]; in vivo) was 4.20 (7.47) and 4.62 (8.41). For the same compound, the “IIV for all three pharmacodynamic parameters (EC50, ke0, Hill coefficient)” value ([3]; in vivo) was “approximately 40%”, the “increase in EC50 caused by scoping-factor” value ([3]; in vivo) was 10-12% and the “increase in EC50 during one- and two-minute spikes of increased MOAA/S score” value ([3]; in vivo) was “approximately 30%”. For the same compound, the ke0 ([3]; in vivo) was 13.3 h⁻¹ and 12.17 h⁻¹, the “typical Hill coefficient” value ([3]; in vivo) was 4.03 and the “Body weight as predictor of systemic clearance” value [4] was “not a statistically significant predictor”. The V4 [5] was 21.59 I.

In the case of `CC(C)c1cccc(C(C)C)c1OCOP(=O)(O)O` [Fospropofol], the “Success rate n/N (%)” value ([6]; (labelled dose)) is listed as 18/26 (69.2%) and the “Success rate n/N (%)” value ([7]; 6.5 mg/kg (labelled dose)) is listed as 137/158 (86.7%).

For `Cc1ncc2n1-c1ccc(Cl)cc1C(c1ccccc1F)=NC2` [Midazolam, reference compound], the “Success rate n/N (%)” value ([6]; 0.02 mg/kg) is listed as 21/26 (80.8%), the “Success rate n/N (%)” value ([7]; 0.02 mg/kg) is listed as 36/52 (69.2%) and the “patients who did not respond to treatment and received Propofol as rescue medication” value ([2]; 2.5/1.0 mg) is listed as 25%. The “Success rate n/N (%)” value ([2]; 2.5/1.0 mg) was 30/40 (75.0%), the “Time to Procedure Start, mean (SD)” value ([2]; 2.5/1.0 mg) was 4.80 (3.19) minutes and the “Time to ready for discharge, Mean (SD)” value ([2]; 2.5/1.0 mg) was 17.1 (7.33) mins. The “Time to fully alert, Mean (SD)” value ([2]; 2.5/1.0 mg) was 15.2 (7.43) mins.
